Data: ChEMBL document CHEMBL1201862, “PubChem BioAssay data set” (2004)
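The compound was tested at five concentrations on cells cultured in 96-well plates, with a 48-hour exposure period. GI50 is the concentration that inhibits growth by half.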 Active and inactive are the calls of the source. No stated cut-off is given here; in the data, active = GI50 up to about 1.1 µM and inactive = higher.

Key:
Assay in all cases: growth of human tumour cells (NCI), 48 h
MDA-N = system: MDA-N
COLO 205 = system: COLO 205
T47D = system: T47D
786-0 = system: 786-0
RPMI-8226 = system: RPMI-8226
CCRF-CEM = system: CCRF-CEM
CAKI-1 = system: CAKI-1
HOP-92 = system: HOP-92
NCI/ADR-RES = system: NCI/ADR-RES
Malme-3M = system: Malme-3M
SNB-19 = system: SNB-19
RXF 393 = system: RXF 393
MDA-MB-435 = system: MDA-MB-435
SK-OV-3 = system: SK-OV-3
OVCAR-4 = system: OVCAR-4
UACC-257 = system: UACC-257
LOX IMVI = system: LOX IMVI
KM12 = system: KM12
HCC 2998 = system: HCC 2998

Measured: GI50

Nc1nc(Cl)cc(NCC2(CO)CCC(O)C2)n1 (stereo unspecified)
inactive: MDA-N > 100 µM | COLO 205 > 100 µM | T47D > 100 µM | 786-0 > 100 µM | RPMI-8226 > 100 µM | CCRF-CEM > 100 µM | CAKI-1 > 100 µM | HOP-92 > 100 µM | NCI/ADR-RES > 100 µM | Malme-3M > 100 µM | SNB-19 > 100 µM | RXF 393 > 100 µM | MDA-MB-435 > 100 µM | SK-OV-3 > 100 µM | OVCAR-4 > 100 µM | UACC-257 > 100 µM | LOX IMVI > 100 µM | KM12 > 100 µM

Nc1ccccc1C(=O)CCc1c[nH]c2ccccc12
inactive: MDA-N > 100 µM | T47D 5.53 µM | 786-0 46.2 µM | RPMI-8226 > 100 µM | HOP-92 13.3 µM | NCI/ADR-RES > 100 µM | HCC 2998 > 100 µM | Malme-3M > 100 µM | SNB-19 92.3 µM | MDA-MB-435 > 100 µM | SK-OV-3 27 µM | OVCAR-4 20.3 µM | UACC-257 > 100 µM | LOX IMVI 47.5 µM | KM12 > 100 µM

Cc1cc(Cl)nc2ccc(Cc3ccc4nc(Cl)cc(C)c4c3)cc12
inactive: MDA-N 47.3 µM | COLO 205 > 100 µM | T47D 6.25 µM | 786-0 12.2 µM | RPMI-8226 36.6 µM | CCRF-CEM > 100 µM | CAKI-1 39.8 µM | HOP-92 43.1 µM | NCI/ADR-RES 33.5 µM | Malme-3M 21.8 µM | SNB-19 32.4 µM | RXF 393 11 µM | MDA-MB-435 65.2 µM | SK-OV-3 14 µM | OVCAR-4 34.8 µM | UACC-257 27 µM | LOX IMVI 56.5 µM | KM12 > 100 µM

C/C(=C/CC[C@](C)(OC1OC(CO)C(O)C(O)C1OC1OC(C)C(O)C(O)C1O)[C@H]1CC[C@]2(C)[C@@H]1CC[C@@H]1[C@@]3(C)CC[C@H](O)C(C)(C)[C@@H]3C[C@H](O)[C@]12C)CO (stereo partly specified)
inactive: MDA-N > 100 µM | COLO 205 > 100 µM | T47D > 100 µM | 786-0 > 100 µM | RPMI-8226 > 100 µM | CCRF-CEM > 100 µM | CAKI-1 > 100 µM | HOP-92 > 100 µM | NCI/ADR-RES > 100 µM | Malme-3M > 100 µM | SNB-19 > 100 µM | RXF 393 > 100 µM | MDA-MB-435 > 100 µM | SK-OV-3 > 100 µM | OVCAR-4 > 100 µM | UACC-257 > 100 µM | LOX IMVI > 100 µM | KM12 > 100 µM

NCCCCCNOCCCN
inactive: MDA-N > 100 µM | COLO 205 > 100 µM | T47D > 100 µM | 786-0 > 100 µM | RPMI-8226 > 100 µM | CCRF-CEM > 100 µM | HOP-92 > 100 µM | NCI/ADR-RES > 100 µM | HCC 2998 > 100 µM | Malme-3M > 100 µM | SNB-19 > 100 µM | MDA-MB-435 > 100 µM | SK-OV-3 > 100 µM | OVCAR-4 > 100 µM | UACC-257 > 100 µM | LOX IMVI > 100 µM | KM12 > 100 µM

N#CCc1nc(O)c2ccccc2n1
inactive: MDA-N > 100 µM | COLO 205 98.9 µM | T47D 50.6 µM | 786-0 > 100 µM | CAKI-1 > 100 µM | HOP-92 > 100 µM | NCI/ADR-RES > 100 µM | HCC 2998 > 100 µM | SNB-19 > 100 µM | MDA-MB-435 > 100 µM | SK-OV-3 > 100 µM | OVCAR-4 > 100 µM | UACC-257 > 100 µM | LOX IMVI 56.4 µM | KM12 > 100 µM
